According to patent US7611713B2 (priority 1999, dated 2009):
No end group written: not given here.

What was measured:
[1] = target: B*0702 (Homo sapiens, UniProt P01889); assay: biochemical; type: binding
[2] = tested on: T helper lymphocytes; conditions: individuals regardless of HLA type; cited from earlier work
[3] = target: B*3501 (Homo sapiens, UniProt P01889, A329T/A93T/A95T/C349S/D201E/D98Y/E176V/E187L/E204Q/E69T/I218V/K202T/L119I/Q94N/R155S/R180L/S121R/S35A/S48A/T118I/V127L/V306I/V36M/Y140S/Y91F); assay: HLA class I peptide binding assay, B*3501
[4] = target: B*5301 (Homo sapiens, UniProt P01889, A329T/A93T/A95T/C349S/D201E/D98Y/E176V/E187L/E204Q/E69T/G107R/I218V/K202T/L105A/L119I/N104I/Q94N/R106L/R155S/R180L/S101N/S121R/S35A/S48A/T118I/V127L/V306I/V36M/Y140S/Y91F); assay: HLA class I peptide binding assay, B*5301
[5] = target: B*5401 (Homo sapiens, UniProt P01889, A329T/C349S/D138N/D201E/E176V/E187T/E204Q/E69G/I76V/K202T/L119W/R155S/R180L/S121T/S35A/S48A/V127L/V306I/V36M/Y140L); assay: biochemical; type: binding

In the case of FPIPSSWAF [Peptide 2506], the IC50 [1] is reported as 24 nM.

For aKXVWANTLKAAa, the “stimulation of T helper lymphocyte response” value [2] is given as “stimulate the response of T helper lymphocytes from most individuals”.

With FPFCLAFSY [Peptide 2511] the IC50 [3] was 6.5 nM, the IC50 [4] was 4.8 nM and the IC50 [5] was 5.1 nM.

FPHCLAFSL [Peptide 2510] showed an IC50 [1] of 74 nM and an IC50 [4] of 15 nM.

With FPHCLAFSI [Peptide 2512] the IC50 [1] was 675 nM, the IC50 [4] was 3.8 nM and the IC50 [5] was 1 nM.

With FPHCLAFSA [Peptide 2513] the IC50 [1] was 3670 nM, the IC50 [3] was 6.5 nM and the IC50 [4] was 137 nM. The IC50 [5] was 0.6 nM.

Work on FPHCLAFAL [Peptide 2509] yielded an IC50 [1] of 25 nM, an IC50 [4] of 5 nM and an IC50 [5] of 24 nM.
